The NIST ThermoML archive (doi:10.1016/j.fluid.2010.12.012)
Numbers after ± are expanded uncertainties.

Test: wn = mass fraction of the nth substance listed
Details: 294.9 K, Liquid; for viscosity: Cone and plate viscometry; for mass density: Vibrating tube method

CC [ethane] + CO
Details	mass density [kg/m3]	viscosity [mPa·s]
1196 kPa, w1 = 0.056	750 ± 2	0.54 ± 0.02
2123 kPa, w1 = 0.12	720 ± 2	0.43 ± 0.02
3130 kPa, w1 = 0.225	671 ± 2	0.32 ± 0.01
